This test has as its system CD2F1 mice, intracerebral P388 leukemia, median survival T/C%. Nature of the test: NCI In Vivo Anticancer Drug Screen. Data for tumor model P388 Leukemia (intracerebral) in CD2F1 (CDF1) mice. Conditions: endpoint: median survival time, higher = longer survival. The method, then:
The antitumor activity of compounds was measured in mice bearing transplantable tumors. Survival or tumor size were measured and the results are expressed as the measurement made in the treated group (T) divided by the measurement made in the vehicle treated control group (C). The tumor model used in this assay is P388 Leukemia (intracerebral) in CD2F1 (CDF1) mice

Setting [1] is: dose: 4.0 mg/kg/injection, schedule: Q01DX009 (ip), vehicle: saline with Tween-80.
Where [2] appears, read: dose: 8.0 mg/kg/injection, schedule: Q01DX009 (ip), vehicle: saline.
Setting [3] is: dose: 16.0 mg/kg/injection, schedule: Q01DX009 (ip), vehicle: saline.
[4] abbreviates: dose: 32.0 mg/kg/injection, schedule: Q01DX009 (ip), vehicle: saline.
The mark [5] stands for this setting: dose: 8.0 mg/kg/injection, schedule: Q01DX009 (ip), vehicle: Klucel (hydroxypropylcellulose) (HPC).
Setting [6] is: dose: 8.0 mg/kg/injection, schedule: Q01DX009 (ip), vehicle: saline with Tween-80.
[7] abbreviates: dose: 16.0 mg/kg/injection, schedule: Q01DX009 (ip), vehicle: Klucel (hydroxypropylcellulose) (HPC).
[8] abbreviates: dose: 16.0 mg/kg/injection, schedule: Q01DX009 (ip), vehicle: saline with Tween-80.
Setting [9] is: dose: 32.0 mg/kg/injection, schedule: Q01DX009 (ip), vehicle: Klucel (hydroxypropylcellulose) (HPC).
Setting [10] is: dose: 32.0 mg/kg/injection, schedule: Q01DX009 (ip), vehicle: saline with Tween-80.
Where [11] appears, read: dose: 64.0 mg/kg/injection, schedule: Q01DX009 (ip), vehicle: Klucel (hydroxypropylcellulose) (HPC).
The mark [12] stands for this setting: dose: 64.0 mg/kg/injection, schedule: Q01DX009 (ip), vehicle: saline with Tween-80.
Setting [13] is: dose: 128.0 mg/kg/injection, schedule: Q01DX009 (ip), vehicle: Klucel (hydroxypropylcellulose) (HPC).
Where [14] appears, read: dose: 4.0 mg/kg/injection, schedule: Q01DX009 (ip), vehicle: saline.

“And” between values parts separate entries of the source, which are not always exact repeats. Equal entries are not always repeated. Inconclusive results and toxic doses are left out.

Take `N=C(N)SCc1c2ccccc2c(CSC(=N)N)c2ccccc12`: the T/C was 93 % of control and 96 % of control (dose: 2.5 mg/kg/injection, schedule: Q01DX005 (ip), vehicle: Klucel (hydroxypropylcellulose) (HPC)); 97 % of control and 104 % of control (dose: 5.0 mg/kg/injection, schedule: Q01DX005 (ip), vehicle: Klucel (hydroxypropylcellulose) (HPC)); 97 % of control and 101 % of control (dose: 10.0 mg/kg/injection, schedule: Q01DX005 (ip), vehicle: Klucel (hydroxypropylcellulose) (HPC)); 96 % of control and 104 % of control (dose: 20.0 mg/kg/injection, schedule: Q01DX005 (ip), vehicle: Klucel (hydroxypropylcellulose) (HPC)).
On to `COc1ccc2c(c1)CCC(c1ccccc1)=C2c1ccc(OCCN2CCCC2)cc1`, for which the T/C (dose: 12.0 mg/kg/injection, schedule: Q01DX005 (ip), vehicle: Klucel (hydroxypropylcellulose) (HPC)) is 104 % of control and 110 % of control; the T/C (dose: 24.0 mg/kg/injection, schedule: Q01DX005 (ip), vehicle: Klucel (hydroxypropylcellulose) (HPC)) is 97 % of control and 102 % of control; the T/C (dose: 48.0 mg/kg/injection, schedule: Q01DX005 (ip), vehicle: Klucel (hydroxypropylcellulose) (HPC)) is 104 % of control and 108 % of control; the T/C (dose: 96.0 mg/kg/injection, schedule: Q01DX005 (ip), vehicle: Klucel (hydroxypropylcellulose) (HPC)) is 96 % of control.
`O=NN(CCCl)C(=O)NC1CCC(=O)NC1=O` (configuration not stated): the T/C (dose: 3.0 mg/kg/injection, schedule: Q01DX009 (ip), vehicle: saline with Tween-80) was 221 % of control; the T/C (dose: 4.0 mg/kg/injection, schedule: Q01DX001 (ip), vehicle: saline) is 114 % of control; the T/C under setting [1] is 242 % of control; the T/C (dose: 6.0 mg/kg/injection, schedule: Q01DX009 (ip), vehicle: saline with Tween-80) is 250 % of control; the T/C (dose: 8.0 mg/kg/injection, schedule: Q01DX001 (ip), vehicle: saline) is 156 % of control; the T/C (dose: 16.0 mg/kg/injection, schedule: Q01DX001 (ip), vehicle: saline) was 212 % of control. The T/C was 262 % of control (dose: 32.0 mg/kg/injection, schedule: Q01DX001 (ip), vehicle: saline) and 212 % of control (dose: 64.0 mg/kg/injection, schedule: Q01DX001 (ip), vehicle: saline).
Consider `CNc1nc(N(C)C)nc(N(C)C)n1`, for which the T/C by setting is: under setting [2], 99 % of control; (dose: 12.5 mg/kg/injection, schedule: Q01DX009 (ip), vehicle: saline) 101 % of control and 111 % of control; under setting [3], 103 % of control; under setting [4], 106 % of control; (dose: 64.0 mg/kg/injection, schedule: Q01DX009 (ip), vehicle: saline) 118 % of control.
Turning to `O=P1(N(CCCl)CCCl)NCCCO1` (configuration not stated), the T/C (dose: 265.0 mg/kg/injection, schedule: Q01DX001 (ip), vehicle: saline) is 163 % of control.
On to `F`, for which the T/C runs as follows: (dose: 16.0 mg/kg/injection, schedule: Q01DX005 (ip), vehicle: saline) 97 % of control and 101 % of control; (dose: 32.0 mg/kg/injection, schedule: Q01DX005 (ip), vehicle: saline) 98 % of control and 99 % of control.
Turning to `C[C@]12C=CC(=O)C=C1CC[C@@H]1[C@@H]2CC[C@]2(C)OC(=O)CC[C@@H]12`, the T/C by setting is: under setting [5], 105 % of control and 111 % of control; under setting [6], 95 % of control and 105 % of control; under setting [7], 100 % of control and 103 % of control; under setting [8], 104 % of control and 105 % of control; under setting [9], 114 % of control and 102 % of control; under setting [10], 97 % of control and 104 % of control. The T/C is 100 % of control and 105 % of control under setting [11]; 97 % of control under setting [12]; 91 % of control and 111 % of control under setting [13]; 104 % of control and 112 % of control (dose: 128.0 mg/kg/injection, schedule: Q01DX009 (ip), vehicle: saline with Tween-80); 121 % of control and 94 % of control (dose: 256.0 mg/kg/injection, schedule: Q01DX009 (ip), vehicle: saline with Tween-80).
For the molecule `Cc1cc(NC(=O)NCc2ccc(N3C(N)=NC(N)=NC3(C)C)cc2)ccc1S(=O)(=O)F`, the T/C runs as follows: (dose: 12.5 mg/kg/injection, schedule: Q01DX009 (ip), vehicle: saline with Tween-80) 105 % of control; (dose: 25.0 mg/kg/injection, schedule: Q01DX009 (ip), vehicle: saline with Tween-80) 105 % of control; (dose: 25.0 mg/kg/injection, schedule: Q04DX003 (ip), vehicle: saline with Tween-80) 111 % of control; (dose: 25.0 mg/kg/injection, schedule: Q04DX003 (ip), vehicle: saline) 105 % of control; (dose: 50.0 mg/kg/injection, schedule: Q01DX009 (ip), vehicle: saline with Tween-80) 97 % of control; (dose: 50.0 mg/kg/injection, schedule: Q04DX003 (ip), vehicle: saline with Tween-80) 101 % of control. Also, the T/C was 100 % of control (dose: 50.0 mg/kg/injection, schedule: Q04DX003 (ip), vehicle: saline); 90 % of control (dose: 100.0 mg/kg/injection, schedule: Q04DX003 (ip), vehicle: saline with Tween-80); 111 % of control (dose: 100.0 mg/kg/injection, schedule: Q04DX003 (ip), vehicle: saline); 116 % of control (dose: 200.0 mg/kg/injection, schedule: Q04DX003 (ip), vehicle: saline with Tween-80); 111 % of control (dose: 200.0 mg/kg/injection, schedule: Q04DX003 (ip), vehicle: saline); 105 % of control (dose: 400.0 mg/kg/injection, schedule: Q04DX003 (ip), vehicle: saline).
For the molecule `N[C@H](C(=O)O)[C@@H]1CC(Cl)=NO1`, the T/C by setting is: under setting [14], 168 % of control; under setting [2], 114 % of control.
As to `COc1ccc2cc1Oc1ccc(cc1)C[C@H]1c3cc(c(OC)cc3CCN1C)Oc1c(OC)c(OC)cc3c1[C@H](C2)N(C)CC3`, the T/C by setting is: (dose: 50.0 mg/kg/injection, schedule: Q01DX005 (ip), vehicle: Klucel (hydroxypropylcellulose) (HPC)) 105 % of control and 106 % of control; (dose: 100.0 mg/kg/injection, schedule: Q01DX005 (ip), vehicle: Klucel (hydroxypropylcellulose) (HPC)) 102 % of control and 105 % of control; (dose: 200.0 mg/kg/injection, schedule: Q01DX005 (ip), vehicle: Klucel (hydroxypropylcellulose) (HPC)) 99 % of control and 108 % of control; (dose: 400.0 mg/kg/injection, schedule: Q01DX005 (ip), vehicle: Klucel (hydroxypropylcellulose) (HPC)) 97 % of control and 104 % of control.
On to `C#C[C@]1(O)CC[C@H]2[C@@H]3CCc4cc(O)ccc4[C@H]3CC[C@@]21C`, for which the T/C is, setting by setting: under setting [5], 90 % of control and 100 % of control; under setting [7], 94 % of control and 104 % of control; under setting [8], 95 % of control; under setting [9], 100 % of control and 101 % of control; under setting [10], 100 % of control; under setting [11], 94 % of control and 100 % of control. Besides, the T/C reads like this: under setting [12], 95 % of control; under setting [13], 99 % of control and 102 % of control; (dose: 256.0 mg/kg/injection, schedule: Q01DX009 (ip), vehicle: Klucel (hydroxypropylcellulose) (HPC)) 95 % of control and 100 % of control; (dose: 512.0 mg/kg/injection, schedule: Q01DX009 (ip), vehicle: Klucel (hydroxypropylcellulose) (HPC)) 86 % of control and 99 % of control; (dose: 512.0 mg/kg/injection, schedule: Q01DX009 (ip), vehicle: saline with Tween-80) 103 % of control.
Turning to `O=C1c2ccccc2C(=O)c2c(NCCNCCO)ccc(NCCNCCO)c21`, the T/C was 112 % of control (dose: 4.0 mg/kg/injection, schedule: Q01DX005 (ip), vehicle: saline with Tween-80); 109 % of control under setting [1]; 101 % of control and 105 % of control under setting [14]; 104 % of control (dose: 8.0 mg/kg/injection, schedule: Q01DX005 (ip), vehicle: saline with Tween-80); 118 % of control and 121 % of control under setting [6]; 91 % of control and 111 % of control under setting [2]. For the same molecule, the T/C reads like this: (dose: 16.0 mg/kg/injection, schedule: Q01DX005 (ip), vehicle: saline with Tween-80) 114 % of control; under setting [8], 119 % of control and 108 % of control; under setting [3], 120 % of control and 112 % of control; (dose: 32.0 mg/kg/injection, schedule: Q01DX005 (ip), vehicle: saline with Tween-80) 96 % of control; under setting [10], 87 % of control and 101 % of control; under setting [4], 90 % of control. For the same molecule, the T/C under setting [12] is 98 % of control.

The record behind these values is PubChem BioAssay AID334 (DTP/NCI, 2004).
